Experimental data: patent publication US8598383B2, “Pharmaceutical composition for treating or preventing degenerative and inflammatory diseases” (Neurotech Pharmaceuticals Co., Ltd., priority 2006, dated 2013)
One block for each compound: values may come before it.

Columns and labels:
[1] = system: TNF-α production in BV2 cell line; experiment: Suppressing effect on production of cytokine (ELISA), TNF-α; assay type: cell-based; conditions: LPS + 100 uM of sample, 24 hours; for TNF-α % Inhibition: level in medium, 100 µM; for inhibition at 100 µM: Mus musculus, BV-2, level in medium
Method: (§1) Effects of the 2-hydroxybenzoic acid derivatives on production of cytokine in BV2 cell line were evaluated. 24-well plate was inoculated with 1×10^6 cells of BV2 cell line, and treated with both LPS, inflammation-inducing material, and 100 uM of sample (the 2-hydroxybenzoic acid derivative or comparative drug), together. After 24 hours of incubation, culture medium was collected. The levels of cytokines, TNF-α and IL-6, in the medium were evaluated by ELISA method.

[2] = system: IL-6 production in BV2 cell line; experiment: Suppressing effect on production of cytokine (ELISA), IL-6; assay type: cell-based; conditions: LPS + 100 uM of sample, 24 hours; for inhibition at 100 µM: Mus musculus, BV-2, level in medium; for IL-6 % Inhibition: level in medium
Method: as §1

[3] = system: MPO (myeloperoxidase); conditions: cited from earlier work; for activity of MPO: in vivo
[4] = system: BV2 microglia cell line; experiment: Suppressing effect on production of NO (LPS, Griess reagent); assay type: cell-based; conditions: Mus musculus, BV-2, LPS-treated BV2 microglia, 24 hours incubation
Method: Inhibiting effect of the 2-hydroxybenzoic acid derivative according to the present invention on NO, inflammatory factor intervening inflammation reaction was evaluated. BV2 microglia cell line was treated with lipopolysaccharide (LPS), a inflammation-inducing material of bacteria toxin, with inclusion of 10 uM, 30 uM or 100 uM of the present compound. After 24 hours of incubation, 50 ul of culture medium was collected in 96-well plate. Then, 50 ul of Griess reagent was added and incubated for 10 minutes at room temperature. The absorbance was evaluated by ELISA reader at 540 nm.

[5] = Single-dose toxicity test; assay type: in vivo
Method: FIG. 32 is results of single dose toxicity testing of some 2-hydroxybenzoic acid derivatives according to the present invention.
Single-dose toxicities of the 2-hydroxybenzoic acid derivatives were evaluated.

[6] = system: collagen-induced arthritis; experiment: Collagen-induced arthritis model (arthritic index); assay type: in vivo, mouse
Method: FIG. 15 is results showing efficacy through arthritis animal model induced by collagen. 25 mg/kg of compound 2, 3 or 18, or methotrexate (control, MTX, 1 mg/kg/week) was intraperitoneally injected after administration of collagen.
FIG. 16 is results showing efficacy of compounds 6 and 11 through arthritis animal model induced by collagen. Collagen was intradermally injected two times with 2 week-interval. One week later, compound 6, compound 11 and methotrexate (control) were intraperitoneally injected. Then, the animals were observed everyday for 2-3 weeks, and results was evaluated by arthritis index.
To evaluate the efficacy of the 2-hydroxybenzoic acid derivative, collagen-induced arthritis model (rheumarthritis animal model) was used. Bovine type II collagen was mixed with complete Freund's adjuvant to make an emulsion, and the emulsion was intradermally injected into the origin site of 8˜10 week-old DBA/1LacJ mouse tail. Intradermal boosting was performed by the same method 2 weeks later. 25 mg/kg/day of compounds 2, 3 and 18, 1 mg/kg/week of methotrexate (comparative example) or 10% vehicle (control) were intraperitoneally injected one week after the second intradermal injection of collagen (FIG. 15). Pictures of foot edema of normal rat (sham), collagen-administered rat (collagen) and compound 18-administered rat (compound 18, 25 mg/kg/day injection) were shown in FIG. 14.
In addition, 50 mg/kg/day of compounds 6 and 11, and 5 mg/kg/2 days of methotrexate (comparative example) were intraperitoneally injected. Phosphate buffered saline was injected as control (FIG. 16). For 2˜3 weeks, the degree of arthritis was observed everyday, and the result was evaluated according to the below arthritic index using edema.
4 paws were evaluated as from 0 to 4 point, Total points: 16

[7] = system: TNF-alpha gene expression in BV2 cell line; experiment: Suppressing effect on gene expression (RT-PCR), TNF-alpha; assay type: cell-based; conditions: gene expression vs LPS control, BV2, 24 hours; for inhibition at 100 µM: Mus musculus, BV-2, 24 h
Method: (§2) Effects of the 2-hydroxybenzoic acid derivatives on iNOS gene expression in BV2 cell line were evaluated. 100 mm dish was inoculated with 1×10^6 cells of BV2 cell line, and treated with both LPS, inflammation-inducing material, and 1˜100 uM of the 2-hydroxybenzoic acid derivative of the present invention, together, in regular concentration interval. After 24 hours of incubation, RNA was extracted. Extracted RNA was used in reverse transcription and polymerase chain reaction, and expression patterns of TNF-alpha, IL-1beta and iNOS were compared.

[8] = system: IL-1beta gene expression in BV2 cell line; experiment: Suppressing effect on gene expression (RT-PCR), IL-1beta; assay type: cell-based; conditions: Mus musculus, BV-2, 24 h, gene expression vs LPS control, BV2, 24 hours
Method: as §2

[9] = system: iNOS gene expression in BV2 cell line; experiment: Suppressing effect on gene expression (RT-PCR), iNOS; assay type: cell-based; conditions: Mus musculus, BV-2, 24 h, gene expression vs LPS control, BV2, 24 hours
Method: as §2

[10] = system: DSS-induced colitis; experiment: 5% dextran sulfate sodium (DSS) inflammatory intestinal disease model; assay type: in vivo, mouse; conditions: vs DSS only; compound 18 25 mg/kg oral
Method: FIG. 17 is results showing efficacy through 5% dextran sulfate sodium (DSS) model, inflammatory intestinal disease animal model. After treatment of DSS, 10, 25 or 50 mg/kg of compound 18 suspended in 10% vehicle was orally administered. Sham means colon of normal mouse, DSS means colon mouse treated with 5% DSS. The others are pictures of colon of mice administered with compound 18 at indicated dose.
FIG. 20 is an efficacy test result of compound 18 using DSS. After treatment of DSS, compound 18 (25 mg/kg) suspended in 10% vehicle was orally administered. After that, bloody excrement by colon injury, diarrhea and the degree of dirtiness were evaluated as feces score.
5% dextran sulfate sodium (DSS) model was used as inflammatory intestinal disease animal model. 5% DSS mixed with water was orally administered. 5% DSS model causes damage to epithelial cell, and ulcer in left colon and the decrease of colon length are mainly observed in the model. This model is simple and reproductive, and can regulate the degree of inflammation according to dose. Therefore, this model is often used for evaluating drug candidates.
DSS is continuously administered in water bottle. The 2-hydroxybenzoic acid derivative was suspended in 10% vehicle, and orally administered.

SMILES: CC(=O)Oc1ccccc1C(=O)O [Aspirin, acetylsalicylic acid, reference compound]
TNF-α % Inhibition [1]: No effect | TNF-α % Inhibition ([1]; listed as aspirin): did not showing reducing effect | inhibition at 100 µM [2]: 22.2% | IL-6 % Inhibition [2]: little reduced

SMILES: CC(C)Cc1ccc(C(C)C(=O)O)cc1 (stereo not shown) [Ibuprofen, reference compound]
TNF-α % Inhibition [1]: No effect | TNF-α % Inhibition ([1]; listed as ibuprofen): did not showing reducing effect | IL-6 % Inhibition ([2]; 100 µM): No effect | IL-6 % Inhibition ([2]; listed as ibuprofen, 100 µM): little reduced

SMILES: CC(c1cc2ccccc2s1)N(O)C(N)=O (stereo not shown) [Zileuton]
activity of MPO [3]: decreased the activity of MPO

IC50 [4]: 183 µM
SMILES: O=C(O)c1cc(NCCc2ccccc2)ccc1O [compound 1, 2-hydroxy-5-phenethylamino-benzoic acid]

SMILES: O=C(O)c1cc(NCCc2cccc(C(F)(F)F)c2)ccc1O [compound 3, 2-hydroxy-5-[2-(3-trifluoromethyl-phenyl)-ethylamino]-benzoic acid]
single-dose toxicity, finding in words ([5]; single dose): high toxicity or dose-independent toxicity | inhibition at 100 µM [1]: 31.9% | arthritic index ([6]; 25 mg/kg/day intraperitoneal): apparent reducing effect | inhibition at 100 µM [2]: 33.1%

SMILES: O=C(O)c1cc(NCCc2cc(C(F)(F)F)cc(C(F)(F)F)c2)ccc1O [compound 4, 5-[2-(3,5-bis-trifluoromethyl-phenyl)-ethylamino]-2-hydroxy-benzoic acid]
single-dose toxicity, finding in words ([5]; mouse, in vivo): caused sudden death of mouse at 3 g/kg | IC50 [4]: 6.25 µM | inhibition at 100 µM [1]: 18.7%

SMILES: O=C(O)c1cc(NCCc2ccccc2[N+](=O)[O-])ccc1O [compound 5, 2-hydroxy-5-[2-(2-nitro-phenyl)-ethylamino]-benzoic acid]
inhibition at 100 µM [7]: 38.7% | inhibition at 100 µM [8]: 67.7%

SMILES: O=C(O)c1cc(NCCc2ccc(Cl)cc2)ccc1O [compound 6, 5-[2-(4-chloro-phenyl)-ethylamino]-2-hydroxy-benzoic acid]
arthritic index ([6]; 50 mg/kg/day intraperitoneal): apparent reducing effect

SMILES: O=C(O)c1cc(NCCc2ccc(Cl)c(Cl)c2)ccc1O [compound 8, 5-[2-(3,4-dichloro-phenyl)-ethylamino]-2-hydroxy-benzoic acid]
inhibition at 100 µM [7]: 77% | % Inhibition (in 100 uM) TNF-alpha [7]: 77.1% | inhibition at 100 µM [8]: > 50%

IC50 [4]: 1.79 µM
SMILES: O=C(O)c1cc(NCCc2ccc(F)cc2C(F)(F)F)ccc1O [compound 9, 5-[2-(4-fluoro-2-trifluoromethyl-phenyl)-ethylamino]-2-hydroxy-benzoic acid]
inhibition at 100 µM [7]: 61.7% | % Inhibition (in 100 uM) TNF-alpha [7]: 61.7% | inhibition at 100 µM [9]: 17.8%

IC50 [4]: 20.7 µM
SMILES: O=C(O)c1cc(NCCc2ccc(C(F)(F)F)cc2F)ccc1O [compound 10, 5-[2-(2-fluoro-4-trifluoromethyl-phenyl)-ethylamino]-2-hydroxy-benzoic acid]

IC50 [4]: 132 µM
SMILES: COc1ccc(CCNc2ccc(O)c(C(=O)O)c2)cc1 [compound 11, 2-hydroxy-5-[2-(4-methoxy-phenyl)-ethylamino]-benzoic acid]
arthritic index ([6]; 50 mg/kg/day intraperitoneal): apparent reducing effect

SMILES: Cc1ccccc1CCNc1ccc(O)c(C(=O)O)c1 [compound 12, 2-hydroxy-5-(2-o-tolyl-ethylamino)-benzoic acid]
inhibition at 100 µM [8]: 41.8% | inhibition at 100 µM [9]: 43.7%

SMILES: O=C(O)c1cc(NCCCc2ccccc2)ccc1O [compound 13, 2-hydroxy-5-(3-phenyl-propylamino)-benzoic acid]
inhibition at 100 µM [7]: 43% | inhibition at 100 µM [9]: 15.5%

SMILES: O=C(O)c1cc(NCCCc2ccc(C(F)(F)F)cc2)ccc1O [compound 14, 2-hydroxy-5-[3-(4-trifluoromethyl-phenyl)-propylamino]-benzoic acid]
single-dose toxicity, finding in words ([5]; single dose): high toxicity or dose-independent toxicity | inhibition at 100 µM [7]: 38.9% | inhibition at 100 µM [1]: 62.6% | inhibition at 100 µM [9]: 44.3%

SMILES: O=C(O)c1cc(NCCCc2ccc(F)cc2)ccc1O [compound 15, 5-[3-(4-fluoro-phenyl)-propylamino]-2-hydroxy-benzoic acid]
inhibition at 100 µM [7]: 37.4% | inhibition at 100 µM [8]: 35.1%

SMILES: Cc1ccc(CCCNc2ccc(O)c(C(=O)O)c2)cc1 [compound 17, 2-hydroxy-5-(3-p-tolyl-propylamino)-benzoic acid]
inhibition at 100 µM [7]: 20.8%

SMILES: O=C(O)c1cc(NCCc2ccccc2Cl)ccc1O [compound 19, 5-[2-(2-chloro-phenyl)-ethylamino]-2-hydroxy-benzoic acid]
LD50 ([5]; mouse, in vivo, single dose): 500 to 1000 mg/kg

SMILES: CS(=O)(=O)Nc1ccc([N+](=O)[O-])cc1Oc1ccccc1 [nimesulide]
protective effect in intestinal damage animal models ([3]; acetic acid-induced IBD and LTB4-induced IBD): showed protective effect | activity of MPO [3]: excessively suppressed the activity of MPO

SMILES: O=C(O)c1cc(/N=N/c2ccc(S(=O)(=O)Nc3ccccn3)cc2)ccc1O [sulfasalazine, reference compound]
activity of MPO [3]: decreased the activity of MPO | feces score (bloody excrement, diarrhea, dirtiness) [10]: significantly decreased feces score
